Laboratory results: patent publication US11613750B2, “Methods of reducing virus molecule levels” (priority 2019, dated 2023)

What was measured:
HBsAg = details: read-out: EC50, Extracell. HBsAg reduction; HepG2.2.15 cells
HepG2.2.15 cells = experiment: HepG2.2.15 cell viability, CellTiter-Glo; details: read-out: CC50, HepG2.2.15 cell viability; highest concentration tested 80 nM
HBeAg = details: 10 nM siRNA transfected into cells
GRP78 mRNA = experiment: Target mRNA reduction by RT-qPCR in HepG2.2.15 cells; type: cell-based, human; details: 10 nM siRNA
GRP78 protein = experiment: Target protein reduction by Western blot in HepG2.2.15 cells; type: cell-based, human; details: 10 nM siRNA, 72 h
HCoV-OC43 [1] = experiment: OC43 virion RNA, Branched DNA assay, infected HCT8 cells; type: cell-based, human coronavirus OC43; design: reduction in OC43 vRNA: dose or concentration left out as unconfirmed; details: for OC43 vRNA reduction siRNA and siGRP78: 10 nM siRNA along with 10 nM of siRNA targeting GRP78, HCT8 cells; for OC43 vRNA reduction: 10 nM siRNA
SRSF1 mRNA = experiment: Target mRNA reduction by RT-qPCR in HepG2.2.15 cells; type: cell-based, human; details: 10 nM siRNA
SRSF1 protein = experiment: Target protein reduction by Western blot in HepG2.2.15 cells; type: cell-based, human; details: 10 nM siRNA, 72 h
HCoV-OC43 [2] = experiment: OC43 virion RNA, RT-qPCR of the OC43 N gene, infected HCT8 cells; type: cell-based, human coronavirus OC43; design: dose or concentration left out as unconfirmed

Compound	EC50 (HBsAg) [nM]	CC50 (HepG2.2.15 cells) [nM]	HBeAg reduction HepG2.2.15 cells (HBeAg) [%]	Target RNA reduction in HepG2.2.15 cells (GRP78 mRNA) [%]	Target protein reduction in HepG2.2.15 cells (GRP78 protein) [%]	OC43 vRNA reduction siRNA and siGRP78 (HCoV-OC43 [1]) [%]	OC43 vRNA reduction (HCoV-OC43 [1]; HCT8 cells) [%]	Target RNA reduction in HepG2.2.15 cells (SRSF1 mRNA) [%]	Target protein reduction in HepG2.2.15 cells (SRSF1 protein) [%]	reduction in OC43 vRNA (HCoV-OC43 [1]; HCT8 cells)	OC43 virion production remaining (HCoV-OC43 [2])
21 (CUGUUACAAUCAAGGUCUATTUAGACCUUGAUUGUAACAGTT; siRNA; Self-complementary hairpin strand, chemistry not given here, further chemistry not given here; listed as Homo sapiens) [compound 21]	1.6	> 80	61.5 ± 10	90 ± 3	59 ± 2	90 ± 4	89 ± 8	–	–	–	–
22 (CAUCUACGUGGGUAACUUAUUUAAGUUACCCACGUAGAUGUU; siRNA; Self-complementary hairpin strand, chemistry not given here, further chemistry not given here; listed as Homo sapiens) [compound 22]	0.9	> 80	33.5 ± 5	–	–	85 ± 4	36 ± 3	71 ± 1	92 ± 20	–	–
CCC(CC)COC(=O)[C@H](C)N[P@](=O)(OC[C@H]1O[C@@](C#N)(c2ccc3c(N)ncnn23)[C@H](O)[C@@H]1O)Oc1ccccc1 [Remdesivir, reference compound]	–	–	–	–	–	–	–	–	–	more than 98%	less than 5%
